From ChEMBL document CHEMBL2311372, “Design and synthesis of novel benzoheterocyclic derivatives as human acrosin inhibitors by scaffold hopping” (Eur J Med Chem, 2013) come the findings set out here.

The target of the experiment is Acrosin (Homo sapiens, UniProt P10323). Briefly: Inhibition of human acrosin using N-alpha-benzoyl-DL-arginine para-nitroanilide-HCl as substrate after 3 hrs by spectrophotometry.
Chain of Acrosin (P10323 20-42 limits assumed): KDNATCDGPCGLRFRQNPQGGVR
Chain of Acrosin (P10323 43-343 limits assumed): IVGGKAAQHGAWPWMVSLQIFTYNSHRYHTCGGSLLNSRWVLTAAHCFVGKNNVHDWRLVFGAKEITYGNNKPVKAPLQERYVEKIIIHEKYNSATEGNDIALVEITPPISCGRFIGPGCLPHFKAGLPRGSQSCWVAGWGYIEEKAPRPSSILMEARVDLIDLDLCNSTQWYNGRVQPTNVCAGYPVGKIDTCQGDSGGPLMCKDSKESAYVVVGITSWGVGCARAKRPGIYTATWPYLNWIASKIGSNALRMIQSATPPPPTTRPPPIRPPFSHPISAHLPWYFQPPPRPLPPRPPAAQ
In turn, `O=Cc1cc(-c2ccc(Cl)cc2Cl)on1` registered a half-maximal inhibitory concentration (IC50) of 39 mM. The compound `O=C(NCCO)Nc1nc2ccc(S(=O)(=O)NCc3ccccc3F)cc2[nH]1` returned an IC50 of 0.08 mM. As for `COc1cccc(CNS(=O)(=O)c2ccc3nc(NC(=O)NCCO)[nH]c3c2)c1`, half-maximal inhibition (IC50) required 7.32 mM. Regarding `O=C(NCCO)Nc1nc2ccc(S(=O)(=O)NCc3cc(Cl)cc(Cl)c3)cc2[nH]1`, the IC50 was 2.45 mM.

`O=C(NCCO)Nc1nc2ccc(S(=O)(=O)NCc3cc(F)cc(F)c3)cc2[nH]1`: the half-inhibitory concentration (IC50) came to 0.34 mM.

For `COc1ccccc1CNS(=O)(=O)c1ccc2nc(NC(=O)NCCO)[nH]c2c1`, the IC50 was determined as 6.04 mM. The compound `Cc1cccc(CNS(=O)(=O)c2ccc3nc(NC(=O)NCCO)[nH]c3c2)c1` gave an IC50 of 5.45 mM. For `O=C(NCCO)Nc1nc2ccc(S(=O)(=O)NCc3ccccc3)cc2[nH]1`, the IC50 came to 0.28 mM.

`O=C(NCCO)Nc1nc2ccc(S(=O)(=O)NCc3ccccc3Cl)cc2[nH]1` showed an IC50 of 1.06 mM. As for `CCCCCCNS(=O)(=O)c1ccc2nc(NC(=O)NCCO)[nH]c2c1`, half-maximal inhibition (IC50) was put at 1.62 mM. As for `CCCCN(CCCC)CC(=O)Nc1nc2ccc(Br)cc2s1`, the midpoint of inhibition, the IC50, lay at 2.78 mM. The compound `CC(C)CCN(CCC(C)C)CC(=O)Nc1nc2ccc(Br)cc2s1` gave an IC50 of 1.09 mM. The compound `CCCCCN(CCCCC)CC(=O)Nc1nc2ccc(Br)cc2s1` had a concentration for half-maximal inhibition (IC50) of 0.54 mM. `CCCCCN1CCN(CC(=O)Nc2nc3ccc(Br)cc3s2)CC1`: half-maximal inhibition (IC50) required 5.08 mM. `COc1ccc(-c2cc(C(=O)N(C)CCO)n[nH]2)cc1` showed an IC50 of 6.81 mM. On to `COc1ccc(-c2cc(C(=O)N(CCO)CCO)n[nH]2)cc1`, for which the IC50 stood at 5.73 mM.

Take `COc1ccc(-c2cc(C(=O)NCCCO)[nH]n2)cc1`: the IC50 was 1.43 mM.

On to `COc1ccc(-c2cc(C(=O)NCC(C)O)n[nH]2)cc1` (stereo unspecified), for which the IC50 amounted to 8.92 mM.

With `CCOC(=O)c1nn(C(=O)c2ccc(Cl)cc2Cl)c2ccccc12`, the IC50 was 3.24 mM.

`CNC(=O)c1nn(C(=O)c2ccc(Cl)cc2Cl)c2ccccc12`: the IC50 was found to be 3.78 mM.

`Cc1ccc(S(=O)(=O)NC(CCCCN)C(=O)CCl)cc1` (stereo unspecified) yielded an IC50 of 143 mM.

As usually defined, the IC50 is the concentration that gives 50% inhibition. Low values mean greater potency in that assay, high ones weaker potency in that assay.
